How the values were obtained:
[1] = Absorption of folic acid from the nasal cavity of rats (in vivo technique, spectrophotometric assay of nasal washings); details: rat, intranasal 0.1 ml of folic acid solution (50 mg/10 ml, pH 8.3), nasal cavity washed with 3 ml water
Protocol: Rats were fasted overnight prior to experimentation. Surgical procedures were performed under equithesin anesthesia (3 ml/kg, i.p.). An incision was made in the neck of each rat, and the trachea cannulated with polyethylene tubing (PF-260). A closed end tube was inserted through the esophagus to the posterior part of the nasal cavity to prevent drug from entering the esophagus. The nasopalatine passage was closed with an adhesive agent to prevent drainage of the drug from the nasal cavity to the mouth.
The solution was filtered. The final pH was 8.3.
The washings were placed in a spectrophotometer cell and the absorbance was measured.

[2] = in vivo; cited from earlier work

Structure (SMILES)	Concentration of folic acid in the nasal cavity ([1]; time 0 min)	Concentration of folic acid in the nasal cavity ([1]; time 2 min)	Concentration of folic acid in the nasal cavity ([1]; time 5 min)	Concentration of folic acid in the nasal cavity ([1]; time 15 min)	Patients with abdominal cramping, nausea, vomiting, and diarrhea [2]	Patients with elevation of serum transaminases (hepatotoxicity) [2]
Nc1nc(=O)c2nc(CNc3ccc(C(=O)NC(CCC(=O)O)C(=O)O)cc3)cnc2[nH]1 [folic acid, N-[4-[[(2-Amino-1,4-dihydro-4-oxo-6-pteridinyl)methly]amino]benzoyl]-L-glutamic acid]	4.1 mg %	3.8 mg %	2.9 mg %	2.6 mg %		
Nc1c2c(nc3ccccc13)CCCC2 [tacrine, 1,2,3,4-tetrahydro-9-aminoacridine]					up to one-third	up to 20 % of patients

— US6369058B1 (New Millennium Pharmaceutical Research Inc., priority 1999, dated 2002)
